In ChEMBL document CHEMBL2203018, “Tyrosine urea muscarinic acetylcholine receptor antagonists: achiral quaternary ammonium groups” (Bioorg Med Chem Lett, 2012):

What was measured:
Mus musculus [1] = test: Inhibition of methacholine-induced bronchoconstriction in Balb/c mouse at 5 ug administered intranasally after 24 hrs; assay type: functional
Mus musculus [2] = test: Inhibition of methacholine-induced bronchoconstriction in Balb/c mouse at 5 ug administered intranasally after 48 hrs; assay type: functional
Mus musculus [3] = test: Inhibition of methacholine-induced bronchoconstriction in Balb/c mouse at 5 ug administered intranasally after 5 hrs; assay type: functional
[4] = target: Muscarinic acetylcholine receptor M3 (Homo sapiens, UniProt P20309); test: Antagonist activity at human muscarinic M3 receptor expressed in CHO cells assessed as inhibition of acetylcholine-induced calcium mobilization by FLIPR assay; assay type: functional, cell-based
Chain of Muscarinic acetylcholine receptor M3 (P20309 whole entry): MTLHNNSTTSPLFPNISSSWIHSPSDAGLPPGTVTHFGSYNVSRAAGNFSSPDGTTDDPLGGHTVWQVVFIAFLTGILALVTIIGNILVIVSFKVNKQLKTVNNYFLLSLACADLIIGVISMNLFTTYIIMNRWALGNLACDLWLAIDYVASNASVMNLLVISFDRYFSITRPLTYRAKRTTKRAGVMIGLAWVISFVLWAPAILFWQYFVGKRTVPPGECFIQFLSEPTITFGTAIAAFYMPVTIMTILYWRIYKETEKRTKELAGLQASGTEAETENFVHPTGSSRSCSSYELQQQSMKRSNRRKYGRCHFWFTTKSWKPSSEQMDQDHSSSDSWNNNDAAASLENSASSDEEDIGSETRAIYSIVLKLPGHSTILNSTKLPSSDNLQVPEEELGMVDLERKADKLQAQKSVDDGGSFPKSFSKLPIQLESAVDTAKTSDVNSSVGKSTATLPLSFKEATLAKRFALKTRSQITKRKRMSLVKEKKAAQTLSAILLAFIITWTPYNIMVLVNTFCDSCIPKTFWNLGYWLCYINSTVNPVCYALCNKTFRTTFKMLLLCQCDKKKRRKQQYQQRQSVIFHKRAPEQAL

[5] = target: T1, Muscarinic acetylcholine receptor M1 (Homo sapiens, UniProt P11229); test: Antagonist activity at human muscarinic M1 receptor expressed in CHO cells assessed as inhibition of acetylcholine-induced calcium mobilization by FLIPR assay; assay type: functional, cell-based
T1 sequence (P11229 whole entry): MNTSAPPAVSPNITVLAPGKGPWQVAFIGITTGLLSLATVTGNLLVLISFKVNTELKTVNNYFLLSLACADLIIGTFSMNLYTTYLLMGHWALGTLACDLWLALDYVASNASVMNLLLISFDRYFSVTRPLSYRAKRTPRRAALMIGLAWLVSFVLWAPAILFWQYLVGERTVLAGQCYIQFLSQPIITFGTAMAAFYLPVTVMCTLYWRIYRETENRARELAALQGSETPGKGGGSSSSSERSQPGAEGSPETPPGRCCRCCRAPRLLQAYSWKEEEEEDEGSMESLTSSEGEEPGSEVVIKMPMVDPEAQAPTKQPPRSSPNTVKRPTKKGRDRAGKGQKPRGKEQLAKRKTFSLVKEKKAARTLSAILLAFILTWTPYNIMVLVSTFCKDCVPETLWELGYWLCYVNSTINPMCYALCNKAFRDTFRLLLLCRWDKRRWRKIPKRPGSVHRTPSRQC

[6] = target: T2, Muscarinic acetylcholine receptor M2 (Homo sapiens, UniProt P08172); test: Antagonist activity at human muscarinic M2 receptor expressed in CHO cells assessed as inhibition of acetylcholine-induced calcium mobilization by FLIPR assay; assay type: functional, cell-based
T2 sequence (P08172 whole entry): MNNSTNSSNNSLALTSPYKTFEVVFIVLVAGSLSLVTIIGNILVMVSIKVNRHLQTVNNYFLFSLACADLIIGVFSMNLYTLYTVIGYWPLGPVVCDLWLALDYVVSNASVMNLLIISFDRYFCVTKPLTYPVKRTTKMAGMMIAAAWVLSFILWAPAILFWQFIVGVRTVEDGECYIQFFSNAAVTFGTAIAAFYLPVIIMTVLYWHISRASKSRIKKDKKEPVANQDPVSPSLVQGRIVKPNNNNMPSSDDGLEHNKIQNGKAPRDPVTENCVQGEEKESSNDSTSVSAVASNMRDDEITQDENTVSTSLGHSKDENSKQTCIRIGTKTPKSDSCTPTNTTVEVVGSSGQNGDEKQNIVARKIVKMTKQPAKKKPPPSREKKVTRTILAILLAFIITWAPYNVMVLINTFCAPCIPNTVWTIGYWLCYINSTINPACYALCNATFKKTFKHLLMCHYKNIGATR

Compound | inhibition (INH) (Mus musculus [1]) | inhibition (INH) (Mus musculus [2]) | inhibition (INH) (Mus musculus [3]) | IC50 [4] | IC50 [5] | IC50 [6]
CC(C)OC(=O)c1ccc(NC(=O)N[C@@H](Cc2ccc(O)cc2)C(=O)N[C@H]2CCC[N+](C)(Cc3ccc(Cl)cc3)C2)cc1 (some centres undefined) | 38% | 0% | 94% |  |  | 
Cc1c[n+]2cc(CNC(=O)[C@H](Cc3ccc(O)cc3)NC(=O)Nc3ccc(C(=O)OC(C)C)cc3)n(Cc3ccc(C(F)(F)F)cc3)c2s1.O=C([O-])C(F)(F)F | 12% |  | 89% |  |  | 
CC(C)OC(=O)c1ccc(NC(=O)N[C@@H](Cc2ccc(O)cc2)C(=O)NCCC[N+](C)(C)Cc2ccc(Cl)cc2)cc1 |  |  |  | 197 nM | 757 nM | 178 nM
CC(C)OC(=O)c1ccc(NC(=O)N[C@@H](Cc2ccc(O)cc2)C(=O)NCC(C)(C)C[N+](C)(C)Cc2ccc(Cl)cc2)cc1 |  |  |  | < 5 nM | 476 nM | 87.6 nM
CC(C)OC(=O)c1ccc(NC(=O)N[C@@H](Cc2ccc(O)cc2)C(=O)N2CC[N+](C)(Cc3ccc4c(c3)OCO4)CC2)cc1 |  |  |  | 10.2 nM | > 3300 nM | 427 nM
CC(C)OC(=O)c1ccc(NC(=O)N[C@@H](Cc2ccc(O)cc2)C(=O)N2CC[N+](C)(CC3CCCCC3)CC2)cc1 |  |  |  | 50.2 nM | 2500 nM | 191 nM
CC(C)OC(=O)c1ccc(NC(=O)N[C@@H](Cc2ccc(O)cc2)C(=O)N2CC[N+](Cc3ccc(Cl)cc3)(C(C)C)CC2)cc1 |  |  |  | 27.5 nM | 893 nM | 97.9 nM
CC(C)OC(=O)c1ccc(NC(=O)N[C@@H](Cc2ccc(O)cc2)C(=O)N2CC[N+](Cc3ccc(Cl)cc3)(CC3CCCCC3)CC2)cc1 |  |  |  | < 5 nM | 141 nM | 58.8 nM
CC(C)OC(=O)c1ccc(NC(=O)N[C@@H](Cc2ccc(O)cc2)C(=O)N2CC[N+](Cc3ccc(Cl)cc3)(CC3CCc4ccccc4C3)CC2)cc1 (some centres undefined) |  |  |  | < 5 nM | 462 nM | 41.2 nM
CC(C)OC(=O)c1ccc(NC(=O)N[C@@H](Cc2ccc(O)cc2)C(=O)N2CC[N+](C)(CCc3ccccc3)CC2)cc1 |  |  |  | < 5 nM | 1350 nM | 860 nM
CC(C)OC(=O)c1ccc(NC(=O)N[C@@H](Cc2ccc(O)cc2)C(=O)N(C)Cc2n(C)cc[n+]2C)cc1 |  |  |  | > 3300 nM | > 3300 nM | > 3300 nM
CC(C)OC(=O)c1ccc(NC(=O)N[C@@H](Cc2ccc(O)cc2)C(=O)N(C)Cc2n(C)cc[n+]2Cc2ccc(Cl)cc2)cc1 |  |  |  | 392 nM | > 3300 nM | 999 nM
CC(C)OC(=O)c1ccc(NC(=O)N[C@@H](Cc2ccc(O)cc2)C(=O)NCc2n(Cc3ccc(Cl)cc3)cc[n+]2Cc2ccc(Cl)cc2)cc1 |  |  |  | 51.9 nM | 327 nM | 181 nM
Cc1csc2n(C)c(CNC(=O)[C@H](Cc3ccc(O)cc3)NC(=O)Nc3ccc(C(=O)OC(C)C)cc3)c[n+]12 |  |  |  | < 5 nM | < 5 nM | < 5 nM
Cc1csc2n(Cc3ccc(Cl)cc3)c(CNC(=O)[C@H](Cc3ccc(O)cc3)NC(=O)Nc3ccc(C(=O)OC(C)C)cc3)c[n+]12 |  |  |  | < 5 nM | < 5 nM | < 5 nM
Cc1c[n+]2cc(CNC(=O)[C@H](Cc3ccc(O)cc3)NC(=O)Nc3ccc(C(=O)OC(C)C)cc3)n(C)c2s1 |  |  |  | < 5 nM | < 5 nM | < 5 nM

Compound | inhibition (INH) (Mus musculus [1]) | inhibition (INH) (Mus musculus [2]) | inhibition (INH) (Mus musculus [3]) | IC50 [4] | IC50 [5] | IC50 [6]
CC(C)OC(=O)c1ccc(NC(=O)N[C@@H](Cc2ccc(O)cc2)C(=O)N2CCC[C@H]([N+](C)(C)Cc3ccc(Cl)cc3)C2)cc1 |  |  |  | 45.3 nM | 1120 nM | 105 nM
CC(C)OC(=O)c1ccc(NC(=O)N[C@@H](Cc2ccc(O)cc2)C(=O)N2CCC([N+]3(Cc4ccc(Cl)cc4)CCCC3)CC2)cc1 |  |  |  | 68.9 nM | 882 nM | 94.6 nM
CC[N+]1(C2CCN(C(=O)[C@H](Cc3ccc(O)cc3)NC(=O)Nc3ccc(C(=O)OC(C)C)cc3)CC2)CCCC1 |  |  |  | 579 nM | > 3300 nM | 556 nM
CC(C)OC(=O)c1ccc(NC(=O)N[C@@H](Cc2ccc(O)cc2)C(=O)NCC[N+](C)(Cc2ccc(Cl)cc2)Cc2ccc(Cl)cc2)cc1 |  |  |  | 70.4 nM | 379 nM | 405 nM
CC(C)OC(=O)c1ccc(NC(=O)N[C@@H](Cc2ccc(O)cc2)C(=O)NCC[N+](C)(C)Cc2ccc(Cl)cc2)cc1 |  |  |  | 143 nM | 1430 nM | 549 nM
CC[N+](CC)(CCNC(=O)[C@H](Cc1ccc(O)cc1)NC(=O)Nc1ccc(C(=O)OC(C)C)cc1)Cc1ccc(Cl)cc1 |  |  |  | 223 nM | 584 nM | 311 nM
CC(C)OC(=O)c1ccc(NC(=O)N[C@@H](Cc2ccc(O)cc2)C(=O)NCC[N+](C)(Cc2ccc3ccccc3c2)Cc2ccc3ccccc3c2)cc1 |  |  |  | 82.2 nM | 948 nM | 15 nM
CC(C)OC(=O)c1ccc(NC(=O)N[C@@H](Cc2ccc(O)cc2)C(=O)NCC[N+](C)(C)C23CC4CC(CC(C4)C2)C3)cc1 |  |  |  | 6.1 nM | 13.1 nM | 13.1 nM
CC(C)OC(=O)c1ccc(NC(=O)N[C@@H](Cc2ccc(O)cc2)C(=O)NCC[N+]2(Cc3ccc(Cl)cc3)CCCC2)cc1 |  |  |  | 44.9 nM | 418 nM | 108 nM
CC(C)OC(=O)c1ccc(NC(=O)N[C@@H](Cc2ccc(O)cc2)C(=O)NCC[N+]2(Cc3ccc(Cl)cc3)CCCCC2)cc1 |  |  |  | 33.4 nM | 199 nM | 82.5 nM
CC(C)OC(=O)c1ccc(NC(=O)N[C@@H](Cc2ccc(O)cc2)C(=O)NCC[N+]2(C)CCCCCC2)cc1 |  |  |  | 159 nM | > 3300 nM | 328 nM
CC(C)OC(=O)c1ccc(NC(=O)N[C@@H](Cc2ccc(O)cc2)C(=O)NCC[N+](C)(C(C)C)C(C)C)cc1 |  |  |  | 237 nM | > 3300 nM | 337 nM
CC(C)OC(=O)c1ccc(NC(=O)N[C@@H](Cc2ccc(O)cc2)C(=O)N(CC[N+](C)(C)C)Cc2ccccc2)cc1 |  |  |  | > 3300 nM | > 3300 nM | > 3300 nM
CC(C)OC(=O)c1ccc(NC(=O)N[C@@H](Cc2ccc(O)cc2)C(=O)NCCC[N+](C)(C)Cc2ccc3ccccc3c2)cc1 |  |  |  | 417 nM | 734 nM | 411 nM
CC(C)OC(=O)c1ccc(NC(=O)N[C@@H](Cc2ccc(O)cc2)C(=O)N2CCC[C@@H]([N+](C)(C)Cc3ccc(Cl)cc3)C2)cc1 |  |  |  | 13.3 nM | 1900 nM | 832 nM
Cc1cn2cc(CNC(=O)[C@H](Cc3ccc(O)cc3)NC(=O)Nc3ccc(C(=O)OC(C)C)cc3)[n+](Cc3ccc4ccccc4c3)c2s1.O=C([O-])C(F)(F)F |  | 69% | 78% |  |  | 
